For assay [1], the target named is T1, Serine/threonine-protein kinase TAO3 (Homo sapiens, UniProt Q9H2K8).
T1 sequence (Q9H2K8 whole entry): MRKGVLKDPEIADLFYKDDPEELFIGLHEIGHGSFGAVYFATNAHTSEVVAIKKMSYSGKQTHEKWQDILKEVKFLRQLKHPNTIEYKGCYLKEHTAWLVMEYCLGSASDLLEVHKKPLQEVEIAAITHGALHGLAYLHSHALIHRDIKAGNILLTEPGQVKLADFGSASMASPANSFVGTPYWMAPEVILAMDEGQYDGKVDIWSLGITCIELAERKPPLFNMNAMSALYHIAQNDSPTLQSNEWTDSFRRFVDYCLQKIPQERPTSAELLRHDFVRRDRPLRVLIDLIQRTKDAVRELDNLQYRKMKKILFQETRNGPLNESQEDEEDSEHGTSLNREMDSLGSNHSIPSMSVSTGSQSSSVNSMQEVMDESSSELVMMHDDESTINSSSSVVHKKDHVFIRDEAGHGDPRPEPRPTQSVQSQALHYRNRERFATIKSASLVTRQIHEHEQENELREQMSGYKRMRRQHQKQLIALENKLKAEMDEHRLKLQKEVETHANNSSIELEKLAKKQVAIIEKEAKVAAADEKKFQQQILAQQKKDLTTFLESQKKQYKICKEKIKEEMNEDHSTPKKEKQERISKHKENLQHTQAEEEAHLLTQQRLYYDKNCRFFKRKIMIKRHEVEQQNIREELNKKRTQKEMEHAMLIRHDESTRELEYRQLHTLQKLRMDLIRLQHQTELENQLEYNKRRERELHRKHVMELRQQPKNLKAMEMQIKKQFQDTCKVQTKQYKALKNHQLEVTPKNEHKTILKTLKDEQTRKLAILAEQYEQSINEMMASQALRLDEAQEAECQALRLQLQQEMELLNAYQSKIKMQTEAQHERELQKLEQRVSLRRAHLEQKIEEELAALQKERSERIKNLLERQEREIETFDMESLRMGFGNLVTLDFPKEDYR

In assay [2] the target is T2, Serine/threonine-protein kinase STK11 (Homo sapiens, UniProt Q15831).
T2 sequence (Q15831 whole entry): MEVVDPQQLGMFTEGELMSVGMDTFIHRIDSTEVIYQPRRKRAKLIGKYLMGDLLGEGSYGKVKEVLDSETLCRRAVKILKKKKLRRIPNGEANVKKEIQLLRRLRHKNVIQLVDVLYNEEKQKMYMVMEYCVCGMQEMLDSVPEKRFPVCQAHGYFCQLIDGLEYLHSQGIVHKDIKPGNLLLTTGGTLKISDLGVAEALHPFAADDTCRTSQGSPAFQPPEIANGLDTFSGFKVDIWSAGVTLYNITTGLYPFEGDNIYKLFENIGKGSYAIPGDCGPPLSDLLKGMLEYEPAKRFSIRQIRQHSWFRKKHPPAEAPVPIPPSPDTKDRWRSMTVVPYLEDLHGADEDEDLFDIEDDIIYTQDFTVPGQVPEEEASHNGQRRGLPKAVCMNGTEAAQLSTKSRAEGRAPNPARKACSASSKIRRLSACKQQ

In assay [3] the target is Dual specificity tyrosine-phosphorylation-regulated kinase 1A (Homo sapiens, UniProt Q13627).
Assay [4] has as its target T3, Tyrosine-protein kinase Tec (Homo sapiens, UniProt P42680).
T3 sequence (P42680 whole entry): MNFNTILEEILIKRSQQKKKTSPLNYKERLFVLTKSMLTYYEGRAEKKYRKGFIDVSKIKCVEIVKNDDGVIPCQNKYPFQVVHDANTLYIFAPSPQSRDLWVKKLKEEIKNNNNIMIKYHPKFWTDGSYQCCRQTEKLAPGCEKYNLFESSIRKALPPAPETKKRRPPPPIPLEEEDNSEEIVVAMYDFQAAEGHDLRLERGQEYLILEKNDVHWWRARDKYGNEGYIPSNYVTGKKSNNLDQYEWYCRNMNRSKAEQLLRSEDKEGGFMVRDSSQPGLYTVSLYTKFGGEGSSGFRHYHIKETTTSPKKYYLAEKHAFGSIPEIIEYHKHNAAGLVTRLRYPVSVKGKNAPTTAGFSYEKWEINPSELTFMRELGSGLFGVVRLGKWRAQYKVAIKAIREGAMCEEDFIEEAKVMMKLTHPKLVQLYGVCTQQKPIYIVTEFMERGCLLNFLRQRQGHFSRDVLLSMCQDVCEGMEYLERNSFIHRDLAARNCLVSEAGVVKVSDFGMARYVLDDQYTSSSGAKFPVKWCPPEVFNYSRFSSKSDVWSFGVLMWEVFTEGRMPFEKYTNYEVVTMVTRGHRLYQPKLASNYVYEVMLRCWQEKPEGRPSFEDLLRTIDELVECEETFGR

The target of assay [5] is Serine/threonine-protein kinase N2 (Homo sapiens, UniProt Q16513).
The next assay addresses Activin receptor type-2B (Homo sapiens, UniProt Q13705).
The target of assay [6] is Serine/threonine-protein kinase PAK 4 (Homo sapiens, UniProt O96013).
Chain of Serine/threonine-protein kinase PAK 4 (O96013 whole entry): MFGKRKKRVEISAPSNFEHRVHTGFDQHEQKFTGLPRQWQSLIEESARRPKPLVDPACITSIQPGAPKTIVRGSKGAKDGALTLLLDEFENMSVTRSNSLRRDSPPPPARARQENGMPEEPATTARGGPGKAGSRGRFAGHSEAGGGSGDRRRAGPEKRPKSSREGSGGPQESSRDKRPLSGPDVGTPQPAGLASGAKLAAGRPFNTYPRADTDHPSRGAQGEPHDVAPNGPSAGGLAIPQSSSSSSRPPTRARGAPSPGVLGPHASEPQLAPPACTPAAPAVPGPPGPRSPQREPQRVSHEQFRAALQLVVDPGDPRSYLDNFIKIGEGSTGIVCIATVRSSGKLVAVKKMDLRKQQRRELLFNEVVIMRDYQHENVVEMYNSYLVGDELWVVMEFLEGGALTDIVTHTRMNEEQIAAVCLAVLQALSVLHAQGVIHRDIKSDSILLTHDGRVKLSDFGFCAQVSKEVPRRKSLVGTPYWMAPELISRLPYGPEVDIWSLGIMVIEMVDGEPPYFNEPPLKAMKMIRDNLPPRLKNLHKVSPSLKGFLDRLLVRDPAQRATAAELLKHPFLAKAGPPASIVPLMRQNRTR
In assay [7] the target is Interleukin-1 receptor-associated kinase 1 (Homo sapiens, UniProt P51617).
Chain of Interleukin-1 receptor-associated kinase 1 (P51617 whole entry): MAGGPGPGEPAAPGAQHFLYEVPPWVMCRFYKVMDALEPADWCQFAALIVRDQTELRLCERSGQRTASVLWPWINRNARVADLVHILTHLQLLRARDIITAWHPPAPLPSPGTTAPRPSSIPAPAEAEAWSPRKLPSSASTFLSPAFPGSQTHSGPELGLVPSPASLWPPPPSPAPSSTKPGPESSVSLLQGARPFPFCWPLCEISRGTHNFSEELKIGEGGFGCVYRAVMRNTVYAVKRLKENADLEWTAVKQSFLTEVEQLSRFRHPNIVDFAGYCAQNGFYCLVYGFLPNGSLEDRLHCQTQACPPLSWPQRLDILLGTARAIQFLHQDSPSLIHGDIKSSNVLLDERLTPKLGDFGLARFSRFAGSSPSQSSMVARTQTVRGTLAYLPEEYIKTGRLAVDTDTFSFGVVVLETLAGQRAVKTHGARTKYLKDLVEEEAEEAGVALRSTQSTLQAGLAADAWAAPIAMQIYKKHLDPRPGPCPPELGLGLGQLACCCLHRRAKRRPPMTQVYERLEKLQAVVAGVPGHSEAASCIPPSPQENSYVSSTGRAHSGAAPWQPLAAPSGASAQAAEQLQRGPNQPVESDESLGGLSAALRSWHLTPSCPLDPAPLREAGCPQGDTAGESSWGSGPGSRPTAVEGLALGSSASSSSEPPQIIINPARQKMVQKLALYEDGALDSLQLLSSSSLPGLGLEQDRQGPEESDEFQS
Assay [8] has as its target Maternal embryonic leucine zipper kinase (Homo sapiens, UniProt Q14680).
Assay [9] concerns the target Cyclin-dependent kinase 5 (Homo sapiens, UniProt Q00535).
The target of assay [10] is Chromodomain-helicase-DNA-binding protein 4 (Homo sapiens, UniProt Q14839).
Chain of Chromodomain-helicase-DNA-binding protein 4 (Q14839 whole entry): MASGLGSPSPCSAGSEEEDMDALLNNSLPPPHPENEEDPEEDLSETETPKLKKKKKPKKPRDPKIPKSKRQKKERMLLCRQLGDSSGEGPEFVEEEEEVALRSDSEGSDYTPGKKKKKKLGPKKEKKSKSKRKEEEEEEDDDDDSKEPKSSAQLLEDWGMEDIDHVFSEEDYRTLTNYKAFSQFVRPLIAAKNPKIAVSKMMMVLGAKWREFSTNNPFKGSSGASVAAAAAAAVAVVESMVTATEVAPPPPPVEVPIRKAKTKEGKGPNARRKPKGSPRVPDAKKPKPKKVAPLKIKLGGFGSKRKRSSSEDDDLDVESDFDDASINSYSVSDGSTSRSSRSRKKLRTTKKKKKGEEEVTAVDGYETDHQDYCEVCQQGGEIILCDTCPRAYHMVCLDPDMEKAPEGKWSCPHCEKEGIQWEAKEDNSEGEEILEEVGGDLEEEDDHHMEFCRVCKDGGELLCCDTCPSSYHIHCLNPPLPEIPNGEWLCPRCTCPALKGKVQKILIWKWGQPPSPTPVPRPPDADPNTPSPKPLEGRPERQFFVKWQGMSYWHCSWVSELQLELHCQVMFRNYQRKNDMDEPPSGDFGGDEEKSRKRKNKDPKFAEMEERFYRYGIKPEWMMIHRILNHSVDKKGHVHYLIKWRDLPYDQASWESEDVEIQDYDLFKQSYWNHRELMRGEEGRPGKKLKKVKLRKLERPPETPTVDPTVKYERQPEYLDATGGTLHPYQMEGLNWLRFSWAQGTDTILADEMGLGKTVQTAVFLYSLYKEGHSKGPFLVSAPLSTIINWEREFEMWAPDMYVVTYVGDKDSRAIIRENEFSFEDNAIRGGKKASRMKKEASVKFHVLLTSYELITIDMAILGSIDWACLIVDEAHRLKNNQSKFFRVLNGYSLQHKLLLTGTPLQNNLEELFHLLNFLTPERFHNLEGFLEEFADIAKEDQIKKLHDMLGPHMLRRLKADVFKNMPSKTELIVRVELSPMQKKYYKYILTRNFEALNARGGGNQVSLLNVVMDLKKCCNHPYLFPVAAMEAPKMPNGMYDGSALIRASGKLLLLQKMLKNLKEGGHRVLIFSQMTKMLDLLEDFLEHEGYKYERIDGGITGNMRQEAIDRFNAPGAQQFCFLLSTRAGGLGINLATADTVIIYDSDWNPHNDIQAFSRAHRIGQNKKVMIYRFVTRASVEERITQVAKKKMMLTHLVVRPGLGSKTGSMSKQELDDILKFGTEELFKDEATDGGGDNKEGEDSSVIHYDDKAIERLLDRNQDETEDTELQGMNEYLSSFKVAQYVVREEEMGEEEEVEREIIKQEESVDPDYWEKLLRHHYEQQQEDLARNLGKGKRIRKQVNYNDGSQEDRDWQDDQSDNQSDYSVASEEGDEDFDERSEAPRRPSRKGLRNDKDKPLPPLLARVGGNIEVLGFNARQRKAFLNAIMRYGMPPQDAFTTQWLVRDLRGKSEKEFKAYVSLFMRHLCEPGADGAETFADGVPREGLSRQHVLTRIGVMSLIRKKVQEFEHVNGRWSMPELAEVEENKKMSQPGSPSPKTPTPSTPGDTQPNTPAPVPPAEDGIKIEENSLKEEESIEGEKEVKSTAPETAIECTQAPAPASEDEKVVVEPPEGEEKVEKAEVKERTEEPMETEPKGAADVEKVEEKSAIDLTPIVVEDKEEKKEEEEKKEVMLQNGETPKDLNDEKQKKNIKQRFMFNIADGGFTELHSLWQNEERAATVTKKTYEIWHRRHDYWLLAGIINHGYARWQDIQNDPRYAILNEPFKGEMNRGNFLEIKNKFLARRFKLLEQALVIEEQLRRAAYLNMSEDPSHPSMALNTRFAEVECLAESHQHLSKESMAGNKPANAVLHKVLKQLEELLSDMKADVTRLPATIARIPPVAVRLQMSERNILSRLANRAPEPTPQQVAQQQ
The target of assay [11] is T4, Ribosyldihydronicotinamide dehydrogenase [quinone] (Homo sapiens, UniProt P16083).
T4 sequence (P16083 whole entry): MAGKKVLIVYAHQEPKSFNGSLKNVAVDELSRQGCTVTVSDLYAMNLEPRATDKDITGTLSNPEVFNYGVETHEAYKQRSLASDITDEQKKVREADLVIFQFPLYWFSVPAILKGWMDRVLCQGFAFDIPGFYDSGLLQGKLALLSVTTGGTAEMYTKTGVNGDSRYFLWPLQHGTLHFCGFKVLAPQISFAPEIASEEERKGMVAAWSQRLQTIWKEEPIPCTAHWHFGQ

Assay [12] addresses Mitogen-activated protein kinase 8 (Homo sapiens, UniProt P45983).

The results in this text go back to ChEMBL document CHEMBL3991601, “The target landscape of clinical kinase drugs” (Science, 2017).

The source made the active and inactive calls. For most assays here, no stated cut-off is given here; in the data, actives have a measured Kd and inactives only a lower limit.

Chain of Maternal embryonic leucine zipper kinase (Q14680 whole entry): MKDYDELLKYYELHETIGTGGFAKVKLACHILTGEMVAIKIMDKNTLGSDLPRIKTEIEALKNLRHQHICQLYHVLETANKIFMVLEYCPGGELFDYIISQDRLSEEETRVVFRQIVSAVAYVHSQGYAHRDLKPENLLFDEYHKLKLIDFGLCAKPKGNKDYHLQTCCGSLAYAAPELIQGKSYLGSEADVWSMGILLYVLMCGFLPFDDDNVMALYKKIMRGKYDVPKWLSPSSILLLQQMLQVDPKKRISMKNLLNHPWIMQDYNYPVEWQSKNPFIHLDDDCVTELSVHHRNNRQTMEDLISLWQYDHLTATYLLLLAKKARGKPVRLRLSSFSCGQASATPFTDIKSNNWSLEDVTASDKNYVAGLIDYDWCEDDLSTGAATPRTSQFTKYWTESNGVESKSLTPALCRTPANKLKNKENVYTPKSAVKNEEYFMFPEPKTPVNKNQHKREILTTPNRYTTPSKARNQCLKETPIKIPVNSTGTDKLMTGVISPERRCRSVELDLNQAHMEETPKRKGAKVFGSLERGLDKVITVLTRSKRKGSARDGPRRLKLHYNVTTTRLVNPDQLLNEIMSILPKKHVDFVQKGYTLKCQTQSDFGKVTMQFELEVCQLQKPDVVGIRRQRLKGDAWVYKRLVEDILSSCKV
Chain of Activin receptor type-2B (Q13705 whole entry): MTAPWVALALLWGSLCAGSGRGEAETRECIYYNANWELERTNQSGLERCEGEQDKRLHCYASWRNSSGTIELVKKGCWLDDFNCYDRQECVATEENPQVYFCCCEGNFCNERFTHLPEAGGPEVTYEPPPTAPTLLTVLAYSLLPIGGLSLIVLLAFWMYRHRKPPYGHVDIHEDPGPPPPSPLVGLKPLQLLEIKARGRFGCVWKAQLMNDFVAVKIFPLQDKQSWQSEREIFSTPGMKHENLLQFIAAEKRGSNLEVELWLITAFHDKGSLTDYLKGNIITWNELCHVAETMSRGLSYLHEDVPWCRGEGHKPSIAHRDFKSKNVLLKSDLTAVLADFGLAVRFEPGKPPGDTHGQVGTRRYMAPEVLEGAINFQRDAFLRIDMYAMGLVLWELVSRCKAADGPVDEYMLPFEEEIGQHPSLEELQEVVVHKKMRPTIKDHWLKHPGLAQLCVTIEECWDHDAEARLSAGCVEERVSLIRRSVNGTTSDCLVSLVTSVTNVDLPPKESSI
Chain of Mitogen-activated protein kinase 8 (P45983 whole entry): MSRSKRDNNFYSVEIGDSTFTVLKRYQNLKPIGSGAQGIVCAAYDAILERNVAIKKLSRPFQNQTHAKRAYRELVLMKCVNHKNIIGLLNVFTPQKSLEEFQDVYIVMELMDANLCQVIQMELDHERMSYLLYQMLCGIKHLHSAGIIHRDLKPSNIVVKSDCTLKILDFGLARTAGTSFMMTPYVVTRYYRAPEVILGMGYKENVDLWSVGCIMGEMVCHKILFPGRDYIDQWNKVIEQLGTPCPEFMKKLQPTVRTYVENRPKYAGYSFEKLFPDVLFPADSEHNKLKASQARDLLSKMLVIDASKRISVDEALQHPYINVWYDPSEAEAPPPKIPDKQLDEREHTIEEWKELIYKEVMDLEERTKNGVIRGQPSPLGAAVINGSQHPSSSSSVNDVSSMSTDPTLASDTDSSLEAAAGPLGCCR

As usually defined, the Kd is the concentration at which binding is half-saturated. Turning to `CCc1nc(C(N)=O)c(Nc2ccc(N3CCC(N4CCN(C)CC4)CC3)c(OC)c2)nc1NC1CCOCC1` [GILTERITINIB], the Kd (in [1]; in [2]; in [3]; in assay [4]; in assay [5]; at Activin receptor type-2B) was > 30 µM (inactive) each time. The Kd in assay [6] was > 30 µM (inactive); in [7] it was > 30 µM (inactive); in [8], > 30 µM (inactive); in [9], > 30 µM (inactive); in assay [10], > 30 µM (inactive); in assay [11], 1.7 µM (active). Moreover, the Kd in assay [12] is 0.736 µM (active).

Turning to `Cc1cc(Nc2nc(N[C@@H](C)c3ncc(F)cn3)ncc2Cl)n[nH]1` [AZD-1480], the Kd in assay [1] is > 30 µM (inactive); in [2] it was 0.714 µM; in [3], > 30 µM (inactive); in assay [4] it was > 30 µM (inactive); in assay [5], > 30 µM (inactive); on Activin receptor type-2B, > 30 µM (inactive). Also, the Kd in assay [6] was 1.88 µM (active); in [7], > 30 µM (inactive); in assay [8], > 30 µM (inactive); in assay [9], > 30 µM (inactive); in [10] it was > 30 µM (inactive); in [11], > 30 µM (inactive). For the same compound, the Kd in [12] is > 30 µM (inactive).

Regarding `Cc1ccc(C(=O)Nc2ccc(Oc3cc4cnn(C)c4cc3-c3cn[nH]c3)c(F)c2)c(=O)n1-c1ccc(F)cc1` [MERESTINIB], the Kd (in [1]; in assay [2]; in [3]; in assay [4]; in assay [5]; on Activin receptor type-2B) was > 30 µM (inactive) each time. For the same compound, the Kd in [6], in [7], in assay [8], in [9], in [10] and in assay [11] was > 30 µM (inactive) each time. Also, the Kd in assay [12] is > 30 µM (inactive).

Take `C#Cc1cccc(Nc2ncnc3cc4c(cc23)OCCOCCOCCO4)c1` [ICOTINIB]: the Kd (in assay [1]; in [2]; in [3]; in assay [4]; in assay [5]; on Activin receptor type-2B) was > 30 µM (inactive) each time. For the same compound, the Kd in [6], in assay [7], in [8], in assay [9], in assay [10] and in assay [11] was > 30 µM (inactive) in each case. In addition, the Kd in [12] was > 30 µM (inactive).

Regarding `COc1cc(F)c(F)c(Nc2ccc(I)cc2F)c1NS(=O)(=O)C1(C[C@H](O)CO)CC1` [REFAMETINIB], the Kd (in [1]; in [2]; in assay [3]; in assay [4]; in assay [5]; on Activin receptor type-2B) was > 30 µM (inactive) each time. Further, the Kd in [6], in assay [7], in assay [8], in assay [9], in [11] and in assay [12] was > 30 µM (inactive) in each case.

Regarding `NC(=O)c1ccc(N(C(N)=O)c2c(F)cccc2F)nc1-c1ccc(F)cc1F` [VX-702], the Kd in assay [1], in assay [2], in [3], in assay [4], in assay [5] and in [6] was > 30 µM (inactive) in each case. The Kd in [7], in [8], in assay [9], in [11] and in assay [12] was > 30 µM (inactive) in each case.

With `Cc1cc(-c2cc(OC(=O)c3ccccc3)ccc2Cl)cc2nnc(Nc3ccc(OCCN4CCCC4)cc3)nc12` [TG100-801], the Kd was > 30 µM (inactive) in assay [1]; > 30 µM (inactive) in assay [2]; > 30 µM (inactive) in [3]; > 30 µM (inactive) in assay [4]; > 30 µM (inactive) in assay [5]; 0.419 µM at Activin receptor type-2B. The Kd in assay [6], in assay [7], in assay [8], in [9], in assay [11] and in [12] was > 30 µM (inactive) in each case.

For the compound `C=CCN(/C=C1/C(=O)O[C@H](COC)[C@@]2(C)C1=C(O)C(=O)C1=C2[C@H](OC(C)=O)C[C@]2(C)C(=O)CC[C@@H]12)CC=C` [SONOLISIB], the Kd (in assay [1]; in assay [2]; in assay [3]; in [4]; in [5]; at Activin receptor type-2B) was > 30 µM (inactive) in each case. In addition, the Kd in assay [6], in [7], in assay [8], in assay [9], in assay [11] and in assay [12] was > 30 µM (inactive) throughout.

On to `Cc1c(NC(=O)OC[C@@H]2COCCN2)cn2ncnc(Nc3ccc4c(cnn4Cc4cccc(F)c4)c3)c12` [AC-480], for which the Kd (in [1]; in assay [3]; in assay [4]; in assay [5]; on Activin receptor type-2B; in assay [6]) was > 30 µM (inactive) each time. Also, the Kd in assay [7], in [8], in assay [9], in assay [10], in [11] and in assay [12] was > 30 µM (inactive) in each case.
